Values of other authors, collected in article PMC11215690 (Clinical and Translational Science, 2024).

Tested on: healthy participants
Details: studies of healthy participants

Compound	most frequently reported TEAEs
CN1C(=O)[C@@H](NC(=O)c2nnc(Cc3ccccc3)[nH]2)COc2ccccc21 [GSK2982772]	headache and skin reaction of contact dermatitis
O=C(c1nc2n(n1)[C@H](c1ccccc1)C[C@@H]2F)C1CC1 [GDC‐8264]	headache and skin reaction of contact dermatitis
